Assay results taken from patent US20230265151A1, “GIP/GLP1 CO-AGONIST COMPOUNDS” (priority 2020, published 2023).
Where two headings read alike, the source gives them in different places.

Legend:
Assay type in all cases: cell-based
hGCGR = target: T1, hGCGR (Homo sapiens, UniProt P47871); assay: Functional cAMP formation (HTRF) in HEK-293 clonal cells expressing hGCGR, 0.1% bovine casein, without or with 1.0% human serum albumin; details: geometric mean
T1 construct: expressed in transfected cells
T1 sequence (P47871 26-477): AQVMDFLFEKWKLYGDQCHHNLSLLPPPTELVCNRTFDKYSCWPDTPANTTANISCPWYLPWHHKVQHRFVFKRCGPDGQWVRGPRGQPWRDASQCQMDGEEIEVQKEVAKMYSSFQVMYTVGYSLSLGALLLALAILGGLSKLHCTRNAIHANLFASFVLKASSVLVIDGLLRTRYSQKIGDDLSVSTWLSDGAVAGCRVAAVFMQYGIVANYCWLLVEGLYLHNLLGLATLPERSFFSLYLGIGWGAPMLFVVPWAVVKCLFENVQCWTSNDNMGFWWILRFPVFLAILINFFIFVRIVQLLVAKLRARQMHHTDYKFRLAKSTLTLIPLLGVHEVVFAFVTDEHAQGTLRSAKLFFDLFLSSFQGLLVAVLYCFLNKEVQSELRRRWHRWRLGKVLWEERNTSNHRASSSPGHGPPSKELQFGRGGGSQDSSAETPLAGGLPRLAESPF
How it was run: (§1)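 Cells were stimulated with peptide for 30 min at 37° C, then intracellular cAMP was measured by competitive HTRF (665/620 nm ratio) and converted to nM using a cAMP standard curve. Relative EC50 and Emax came from four-parameter logistic fits of percent maximal response against peptide concentration.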

hGIPR = target: T2, hGIPR (Homo sapiens, UniProt P48546); assay: Functional cAMP formation (HTRF) in HEK-293 clonal cells expressing hGIPR, 0.1% bovine casein, without or with 1.0% human serum albumin; details: for EC50: geometric mean
T2 construct: expressed in transfected cells
T2 sequence (P48546 22-466): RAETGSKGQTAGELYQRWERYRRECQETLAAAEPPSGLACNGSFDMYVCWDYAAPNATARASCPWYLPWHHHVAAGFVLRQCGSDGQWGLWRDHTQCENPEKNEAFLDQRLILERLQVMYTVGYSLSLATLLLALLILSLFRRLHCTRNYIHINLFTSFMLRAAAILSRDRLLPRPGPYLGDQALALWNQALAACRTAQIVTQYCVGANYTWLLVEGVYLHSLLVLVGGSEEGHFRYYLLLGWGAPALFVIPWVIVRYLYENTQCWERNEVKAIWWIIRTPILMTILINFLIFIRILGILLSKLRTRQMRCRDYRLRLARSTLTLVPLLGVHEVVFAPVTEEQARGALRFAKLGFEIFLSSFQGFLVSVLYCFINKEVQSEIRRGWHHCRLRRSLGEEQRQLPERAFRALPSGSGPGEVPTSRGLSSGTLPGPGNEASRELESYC
How it was run: as §1

hGLP-1R = hGLP-1R (Homo sapiens, UniProt P43220); assay: Functional cAMP formation (HTRF) in HEK-293 clonal cells expressing hGLP-1R, 0.1% bovine casein, without or with 1.0% human serum albumin; design: expressed in transfected cells; details: geometric mean
Sequence of hGLP-1R (P43220 24-463): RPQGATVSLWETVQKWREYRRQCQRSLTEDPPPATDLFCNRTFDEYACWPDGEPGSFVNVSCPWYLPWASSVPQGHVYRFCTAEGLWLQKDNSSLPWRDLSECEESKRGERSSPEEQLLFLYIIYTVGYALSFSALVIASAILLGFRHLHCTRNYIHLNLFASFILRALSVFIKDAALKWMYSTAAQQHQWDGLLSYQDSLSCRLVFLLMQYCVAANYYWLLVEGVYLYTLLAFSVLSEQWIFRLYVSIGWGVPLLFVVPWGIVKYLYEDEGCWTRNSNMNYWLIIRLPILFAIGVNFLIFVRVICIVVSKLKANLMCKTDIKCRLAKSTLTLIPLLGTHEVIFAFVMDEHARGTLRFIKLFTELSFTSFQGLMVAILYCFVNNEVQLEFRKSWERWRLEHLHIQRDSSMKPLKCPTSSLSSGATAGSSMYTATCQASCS
How it was run: as §1

[1] = hGCGR EC50, nM (SEM, n), cAMP, incubated at 37° C., 0.1% bovine casein (no human serum albumin)
[2] = hGIPR EC50, nM (SEM, n), cAMP, incubated at 37° C., 0.1% bovine casein (no human serum albumin)
[3] = hGLP-1R EC50, nM (SEM, n), cAMP, incubated at 37° C., 0.1% bovine casein (no human serum albumin)
[4] = 0.1% bovine casein and 1.0% human serum albumin, 37° C., read-out: hGCGR EC50, nM (SEM, n)
[5] = cAMP, incubated at 37° C., 0.1% bovine casein (no human serum albumin), read-out: hGCGR EC50, nM (SEM, n)
[6] = 0.1% bovine casein and 1.0% human serum albumin, 37° C., read-out: hGIPR EC50, nM (SEM, n)
[7] = HEK293, 0.1% bovine casein and 1.0% human serum albumin, 37° C., percent of maximal response to GIP(1-42)NH2, read-out: hGIPR Emax, % ± SEM
[8] = cAMP, incubated at 37° C., 0.1% bovine casein (no human serum albumin), read-out: hGIPR EC50, nM (SEM, n)
[9] = 0.1% bovine casein and 1.0% human serum albumin, 37° C., read-out: hGLP-1R EC50, nM (SEM, n)
[10] = HEK293, percent of maximal response to GIP(1-42)NH2, 37° C., 0.1% bovine casein, arithmetic mean, read-out: hGIPR Emax, % ± SEM
[11] = cAMP, incubated at 37° C., 0.1% bovine casein (no human serum albumin), read-out: hGLP-1R EC50, nM (SEM, n)

| Structure (SMILES) | EC50 (hGCGR; [1]) [nM] | Emax (hGIPR; HEK293, read-out: hGIPR Emax, % ± SEM, percent of maximal response to GIP(1-42)NH2, 37° C., 0.1% bovine casein, arithmetic mean) [%] | EC50 (hGIPR; [2]) [nM] | EC50 (hGLP-1R; [3]) [nM] | EC50 (hGCGR; [4]) [nM] | EC50 (hGCGR; [5]) [nM] | EC50 (hGIPR; [6]) [nM] | Emax (hGIPR; [7]) [%] | EC50 (hGIPR; [8]) [nM] | EC50 (hGLP-1R; [9]) [nM] | Emax (hGIPR; [10]) [%] | EC50 (hGLP-1R; [11]) [nM] |
| --- | --- | --- | --- | --- | --- | --- | --- | --- | --- | --- | --- | --- |
| CC[C@H](C)[C@H](NC(=O)[C@H](CC(C)C)NC(=O)[C@](C)(Cc1ccc(O)cc1)NC(=O)[C@H](CCCCNC(=O)COCCOCCNC(=O)COCCOCCNC(=O)CC[C@H](NC(=O)CCCc1ccc(C(C)(C)C)cc1)C(=O)O)NC(=O)[C@@H](NC(=O)[C@H](Cc1ccccc1)NC(=O)[C@H](CCC(=O)O)NC(=O)C(C)(C)NC(=O)[C@H](CCC(N)=O)NC(=O)[C@H](C)NC(=O)[C@H](CCCCNC(=O)COCCOCCNC(=O)COCCOCCNC(=O)CC[C@H](NC(=O)CCCc1ccc(C(C)(C)C)cc1)C(=O)O)NC(=O)[C@H](CCCN)NC(=O)[C@H](CC(=O)O)NC(=O)[C@H](CC(C)C)NC(=O)[C@](C)(CC(C)C)NC(=O)[C@@H](NC(=O)[C@H](CO)NC(=O)[C@H](Cc1ccncc1)NC(=O)[C@H](CC(=O)O)NC(=O)[C@H](CO)NC(=O)[C@@H](NC(=O)[C@](C)(Cc1ccccc1F)NC(=O)[C@@H](NC(=O)CNC(=O)[C@H](CCC(=O)O)NC(=O)C(C)(C)NC(=O)[C@@H](N)Cc1ccc(O)cc1)[C@@H](C)O)[C@@H](C)O)[C@@H](C)CC)[C@@H](C)CC)C(=O)N[C@@H](CCC(=O)O)C(=O)NCC(=O)NCC(=O)N1CCC[C@H]1C(=O)N[C@@H](CO)C(=O)N[C@@H](CO)C(=O)NCC(=O)N[C@@H](C)C(=O)N1CCC[C@H]1C(=O)N1CCC[C@H]1C(=O)N1CCC[C@H]1C(=O)N[C@@H](CO)C(N)=O [Example 132] | > 9950 | 98.3 ± 1.68 | 0.0208 | 0.182 | – | – | – | – | – | – | – | – |
| CC[C@H](C)[C@H](NC(=O)[C@H](CC(C)C)NC(=O)[C@](C)(Cc1ccc(O)cc1)NC(=O)[C@@H](CCC(=O)O)NC(=O)[C@@H](NC(=O)[C@H](Cc1ccccc1)NC(=O)[C@H](CCC(=O)O)NC(=O)C(C)(C)NC(=O)[C@H](CCC(N)=O)NC(=O)[C@H](C)NC(=O)[C@H](CCCCNC(=O)COCCOCCNC(=O)COCCOCCNC(=O)CC[C@H](NC(=O)CCCc1ccc(C(C)(C)C)cc1)C(=O)O)NC(=O)[C@H](CCCN)NC(=O)[C@H](CC(=O)O)NC(=O)[C@H](CC(C)C)NC(=O)[C@](C)(CC(C)C)NC(=O)[C@@H](NC(=O)[C@H](CO)NC(=O)[C@H](Cc1ccncc1)NC(=O)[C@H](CC(=O)O)NC(=O)[C@H](CO)NC(=O)[C@@H](NC(=O)[C@](C)(Cc1ccccc1F)NC(=O)[C@@H](NC(=O)CNC(=O)[C@H](CCC(=O)O)NC(=O)C(C)(C)NC(=O)[C@@H](N)Cc1ccc(O)cc1)[C@@H](C)O)[C@@H](C)O)[C@@H](C)CC)[C@@H](C)CC)C(=O)N[C@@H](CCCCNC(=O)COCCOCCNC(=O)COCCOCCNC(=O)CC[C@H](NC(=O)CCCc1ccc(C(C)(C)C)cc1)C(=O)O)C(=O)NCC(=O)NCC(=O)N1CCC[C@H]1C(=O)N[C@@H](CO)C(=O)N[C@@H](CO)C(=O)NCC(=O)N[C@@H](C)C(=O)N1CCC[C@H]1C(=O)N1CCC[C@H]1C(=O)N1CCC[C@H]1C(=O)N[C@@H](CO)C(N)=O [Example 133] | – | – | – | – | > 9950 | > 9950 | 0.0695 | 89.1 ± 4.64 | 0.018 | 1.17 | – | – |
| CC[C@H](C)[C@H](NC(=O)[C@H](CC(C)C)NC(=O)[C@](C)(Cc1ccc(O)cc1)NC(=O)[C@@H](CCC(=O)O)NC(=O)[C@@H](NC(=O)[C@H](Cc1ccccc1)NC(=O)[C@H](CCC(=O)O)NC(=O)C(C)(C)NC(=O)[C@H](CCC(N)=O)NC(=O)[C@H](C)NC(=O)[C@H](CCCCNC(=O)COCCOCCNC(=O)COCCOCCNC(=O)CC[C@H](NC(=O)CCCc1ccc(C(C)(C)C)cc1)C(=O)O)NC(=O)[C@H](CCCN)NC(=O)[C@H](CC(=O)O)NC(=O)[C@H](CC(C)C)NC(=O)[C@](C)(CC(C)C)NC(=O)[C@@H](NC(=O)[C@H](CO)NC(=O)[C@H](Cc1ccncc1)NC(=O)[C@H](CC(=O)O)NC(=O)[C@H](CO)NC(=O)[C@@H](NC(=O)[C@](C)(Cc1ccccc1F)NC(=O)[C@@H](NC(=O)CNC(=O)[C@H](CCC(=O)O)NC(=O)C(C)(C)NC(=O)[C@@H](N)Cc1ccc(O)cc1)[C@@H](C)O)[C@@H](C)O)[C@@H](C)CC)[C@@H](C)CC)C(=O)N[C@@H](CCC(=O)O)C(=O)NCC(=O)NCC(=O)N1CCC[C@H]1C(=O)N[C@@H](CO)C(=O)N[C@@H](CO)C(=O)NCC(=O)N[C@@H](C)C(=O)N1CCC[C@H]1C(=O)N1CCC[C@H]1C(=O)N1CCC[C@H]1C(=O)N[C@@H](CO)C(=O)N[C@@H](CCCCNC(=O)COCCOCCNC(=O)COCCOCCNC(=O)CC[C@H](NC(=O)CCCc1ccc(C(C)(C)C)cc1)C(=O)O)C(N)=O [Example 135] | – | – | – | – | > 9950 | > 9950 | 0.0609 | 91.2 ± 4.78 | 0.0184 | 0.936 | 92.3 ± 2.64 | 0.271 |
| CCCCCCCCCCCC(=O)N[C@@H](CCC(=O)NCCOCCOCC(=O)NCCOCCOCC(=O)NCCCC[C@H](NC(=O)[C@H](CCCN)NC(=O)[C@H](CC(=O)O)NC(=O)[C@H](CC(C)C)NC(=O)[C@](C)(CC(C)C)NC(=O)[C@@H](NC(=O)[C@H](CO)NC(=O)[C@H](Cc1ccncc1)NC(=O)[C@H](CC(=O)O)NC(=O)[C@H](CO)NC(=O)[C@@H](NC(=O)[C@](C)(Cc1ccccc1F)NC(=O)[C@@H](NC(=O)CNC(=O)[C@H](CCC(=O)O)NC(=O)C(C)(C)NC(=O)[C@@H](N)Cc1ccc(O)cc1)[C@@H](C)O)[C@@H](C)O)[C@@H](C)CC)C(=O)N[C@@H](C)C(=O)N[C@@H](CCC(N)=O)C(=O)NC(C)(C)C(=O)N[C@@H](CCC(=O)O)C(=O)N[C@@H](Cc1ccccc1)C(=O)N[C@H](C(=O)N[C@@H](CCCCNC(=O)COCCOCCNC(=O)COCCOCCNC(=O)CC[C@H](NC(=O)CCCCCCCCCCC)C(=O)O)C(=O)N[C@@](C)(Cc1ccc(O)cc1)C(=O)N[C@@H](CC(C)C)C(=O)N[C@H](C(=O)N[C@@H](CCC(=O)O)C(=O)NCC(=O)NCC(=O)N1CCC[C@H]1C(=O)N[C@@H](CO)C(=O)N[C@@H](CO)C(=O)NCC(=O)N[C@@H](C)C(=O)N1CCC[C@H]1C(=O)N1CCC[C@H]1C(=O)N1CCC[C@H]1C(=O)N[C@@H](CO)C(N)=O)[C@@H](C)CC)[C@@H](C)CC)C(=O)O [Example 138] | > 9950 | – | 0.0197 | 0.267 | – | – | – | – | – | – | – | – |
| CCCCCCCCCCCC(=O)N[C@@H](CCC(=O)NCCOCCOCC(=O)NCCOCCOCC(=O)NCCCC[C@H](NC(=O)[C@H](CCCN)NC(=O)[C@H](CC(=O)O)NC(=O)[C@H](CC(C)C)NC(=O)[C@](C)(CC(C)C)NC(=O)[C@@H](NC(=O)[C@H](CO)NC(=O)[C@H](Cc1ccncc1)NC(=O)[C@H](CC(=O)O)NC(=O)[C@H](CO)NC(=O)[C@@H](NC(=O)[C@](C)(Cc1ccccc1F)NC(=O)[C@@H](NC(=O)CNC(=O)[C@H](CCC(=O)O)NC(=O)C(C)(C)NC(=O)[C@@H](N)Cc1ccc(O)cc1)[C@@H](C)O)[C@@H](C)O)[C@@H](C)CC)C(=O)N[C@@H](C)C(=O)N[C@@H](CCC(N)=O)C(=O)NC(C)(C)C(=O)N[C@@H](CCC(=O)O)C(=O)N[C@@H](Cc1ccccc1)C(=O)N[C@H](C(=O)N[C@H](CCC(=O)O)C(=O)N[C@@](C)(Cc1ccc(O)cc1)C(=O)N[C@@H](CC(C)C)C(=O)N[C@H](C(=O)N[C@@H](CCC(=O)O)C(=O)NCC(=O)N[C@@H](CCCCNC(=O)COCCOCCNC(=O)COCCOCCNC(=O)CC[C@H](NC(=O)CCCCCCCCCCC)C(=O)O)C(=O)N1CCC[C@H]1C(=O)N[C@@H](CO)C(=O)N[C@@H](CO)C(=O)NCC(=O)N[C@@H](C)C(=O)N1CCC[C@H]1C(=O)N1CCC[C@H]1C(=O)N1CCC[C@H]1C(=O)N[C@@H](CO)C(N)=O)[C@@H](C)CC)[C@@H](C)CC)C(=O)O [Example 140] | – | – | – | – | – | > 9950 | – | – | 0.0121 | – | 98.5 ± 1.71 | 0.131 |
